In patent US11130756B2, “[1,2,4]Triazolo[4,3-A]pyridinyl substituted indole compounds” (BRISTOL-MYERS SQUIBB COMPANY, priority 2017, dated 2021):

Columns and labels:
Assay type in all cases: cell-based
[1] = target: T1, human TLR7 (Homo sapiens, UniProt Q9NYK1); assay: TLR7 inhibition reporter assay (HEK-Blue, SEAP); conditions: HEK-Blue cells overexpressing human TLR7, gardiquimod 7.5 μM, 22 hour incubation
T1 construct: host or cells: HEK-Blue cells
T1 sequence (Q9NYK1 27-1049): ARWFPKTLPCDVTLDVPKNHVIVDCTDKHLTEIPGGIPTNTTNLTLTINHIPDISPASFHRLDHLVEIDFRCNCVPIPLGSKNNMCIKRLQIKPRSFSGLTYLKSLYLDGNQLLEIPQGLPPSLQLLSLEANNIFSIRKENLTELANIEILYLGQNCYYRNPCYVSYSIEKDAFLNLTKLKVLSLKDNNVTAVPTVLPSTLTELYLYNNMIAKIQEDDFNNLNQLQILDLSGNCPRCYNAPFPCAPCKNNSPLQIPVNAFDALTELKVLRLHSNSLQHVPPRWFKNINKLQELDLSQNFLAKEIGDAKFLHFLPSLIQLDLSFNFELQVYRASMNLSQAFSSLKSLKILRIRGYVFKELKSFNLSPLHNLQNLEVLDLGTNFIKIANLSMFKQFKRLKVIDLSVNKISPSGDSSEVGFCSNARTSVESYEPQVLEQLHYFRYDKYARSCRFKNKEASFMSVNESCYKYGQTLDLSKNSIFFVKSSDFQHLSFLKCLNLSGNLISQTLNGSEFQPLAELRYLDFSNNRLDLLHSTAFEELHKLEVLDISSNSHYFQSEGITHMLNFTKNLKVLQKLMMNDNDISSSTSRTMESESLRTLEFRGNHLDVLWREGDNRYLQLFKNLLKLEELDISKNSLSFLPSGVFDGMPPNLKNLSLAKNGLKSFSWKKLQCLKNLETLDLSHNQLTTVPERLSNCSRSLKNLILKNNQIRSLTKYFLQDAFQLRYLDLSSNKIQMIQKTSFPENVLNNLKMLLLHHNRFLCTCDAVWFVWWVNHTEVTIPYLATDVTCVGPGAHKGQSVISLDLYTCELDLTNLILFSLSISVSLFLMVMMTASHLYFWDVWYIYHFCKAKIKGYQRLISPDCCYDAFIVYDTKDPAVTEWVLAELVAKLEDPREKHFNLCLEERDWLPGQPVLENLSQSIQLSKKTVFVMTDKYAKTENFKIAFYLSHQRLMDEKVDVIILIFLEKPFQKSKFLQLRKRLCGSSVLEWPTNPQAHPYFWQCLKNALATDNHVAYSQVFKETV
Procedure, shortened: (§1)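 Agonists used: gardiquimod 7.5 μM (TLR7), R848 15.9 μM (TLR8), ODN2006 5 nM (TLR9), added after 30 min room-temperature compound pre-treatment (0.05 nM–50 μM) of receptor-overexpressing HEK-Blue cells. SEAP reporter (NF-κB/AP-1 driven) read after 22 h at 37 °C; inhibition scaled between agonist+DMSO and reference-inhibitor wells.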

[2] = target: T2, human TLR9 (Homo sapiens, UniProt Q9NR96); assay: TLR9 inhibition reporter assay (HEK-Blue, SEAP); conditions: HEK-Blue cells overexpressing human TLR9, ODN2006 5 nM, 22 hour incubation
T2 construct: host or cells: HEK-Blue cells
T2 sequence (Q9NR96 26-1032): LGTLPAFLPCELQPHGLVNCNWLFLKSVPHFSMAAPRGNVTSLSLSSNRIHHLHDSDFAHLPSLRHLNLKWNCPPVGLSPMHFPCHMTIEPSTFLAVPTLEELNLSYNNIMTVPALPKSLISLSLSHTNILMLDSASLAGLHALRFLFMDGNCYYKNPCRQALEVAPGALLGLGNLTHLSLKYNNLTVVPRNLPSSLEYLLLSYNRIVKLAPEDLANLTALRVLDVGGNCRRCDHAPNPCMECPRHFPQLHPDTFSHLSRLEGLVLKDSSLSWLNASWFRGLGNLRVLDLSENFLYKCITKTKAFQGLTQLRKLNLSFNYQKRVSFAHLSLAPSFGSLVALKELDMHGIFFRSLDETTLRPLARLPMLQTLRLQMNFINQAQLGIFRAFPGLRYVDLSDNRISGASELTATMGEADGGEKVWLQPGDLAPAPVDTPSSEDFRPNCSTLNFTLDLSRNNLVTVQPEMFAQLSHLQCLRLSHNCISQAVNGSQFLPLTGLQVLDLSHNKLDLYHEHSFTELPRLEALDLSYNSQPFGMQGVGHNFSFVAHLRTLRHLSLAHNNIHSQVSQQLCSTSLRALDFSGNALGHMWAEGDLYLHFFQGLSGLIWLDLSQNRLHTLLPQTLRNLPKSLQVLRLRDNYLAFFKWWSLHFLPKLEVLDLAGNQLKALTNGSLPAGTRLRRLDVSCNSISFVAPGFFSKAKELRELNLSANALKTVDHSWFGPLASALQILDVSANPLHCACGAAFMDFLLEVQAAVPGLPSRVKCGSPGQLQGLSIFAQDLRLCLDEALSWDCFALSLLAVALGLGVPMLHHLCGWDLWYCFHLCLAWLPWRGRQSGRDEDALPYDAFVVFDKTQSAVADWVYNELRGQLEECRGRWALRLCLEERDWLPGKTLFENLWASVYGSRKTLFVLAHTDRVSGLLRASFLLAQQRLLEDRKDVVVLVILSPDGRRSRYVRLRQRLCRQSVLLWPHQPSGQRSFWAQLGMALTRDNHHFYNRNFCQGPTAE
Procedure, shortened: as §1

[3] = target: T3, human TLR8 (Homo sapiens, UniProt Q9NR97); assay: TLR8 inhibition reporter assay (HEK-Blue, SEAP); conditions: HEK-Blue cells overexpressing human TLR8, R848 15.9 μM, 22 hour incubation
T3 construct: host or cells: HEK-Blue cells
T3 sequence (Q9NR97 27-1041): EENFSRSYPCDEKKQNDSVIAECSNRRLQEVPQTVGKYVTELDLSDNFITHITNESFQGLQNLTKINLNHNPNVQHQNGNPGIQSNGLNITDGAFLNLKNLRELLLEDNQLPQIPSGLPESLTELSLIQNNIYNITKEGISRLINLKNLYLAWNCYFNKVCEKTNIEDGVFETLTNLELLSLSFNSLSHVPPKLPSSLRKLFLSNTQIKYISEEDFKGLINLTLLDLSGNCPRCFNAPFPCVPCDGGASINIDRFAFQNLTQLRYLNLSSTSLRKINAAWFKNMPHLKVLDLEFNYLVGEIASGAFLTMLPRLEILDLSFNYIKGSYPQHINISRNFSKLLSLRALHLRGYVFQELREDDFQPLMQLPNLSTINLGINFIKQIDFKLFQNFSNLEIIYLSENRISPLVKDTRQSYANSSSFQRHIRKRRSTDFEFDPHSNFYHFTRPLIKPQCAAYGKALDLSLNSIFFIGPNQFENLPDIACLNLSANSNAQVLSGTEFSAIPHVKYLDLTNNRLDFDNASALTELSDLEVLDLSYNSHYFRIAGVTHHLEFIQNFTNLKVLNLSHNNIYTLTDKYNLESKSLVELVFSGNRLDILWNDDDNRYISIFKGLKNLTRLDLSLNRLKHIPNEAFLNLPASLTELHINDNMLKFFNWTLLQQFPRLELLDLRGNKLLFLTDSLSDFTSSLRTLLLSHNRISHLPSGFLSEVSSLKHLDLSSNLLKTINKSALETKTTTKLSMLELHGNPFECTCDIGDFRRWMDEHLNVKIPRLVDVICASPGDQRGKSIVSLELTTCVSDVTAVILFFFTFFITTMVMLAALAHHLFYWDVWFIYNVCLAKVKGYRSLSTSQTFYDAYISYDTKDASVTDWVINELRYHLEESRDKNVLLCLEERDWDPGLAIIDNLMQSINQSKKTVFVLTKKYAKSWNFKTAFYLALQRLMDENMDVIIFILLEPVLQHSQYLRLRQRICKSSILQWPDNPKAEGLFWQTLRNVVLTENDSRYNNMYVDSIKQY
Procedure, shortened: as §1

| SMILES | IC50 [1] | IC50 [2] | IC50 [3] |
| --- | --- | --- | --- |
| Cc1cc(-c2[nH]c3ccc(C4CCN(CC#N)CC4)cc3c2C(C)C)cn2c(C)nnc12 [Example 31, 2-(4-(2-(3,8-dimethyl-[1,2,4]triazolo[4,3-a]pyridin-6-yl)-3-isopropyl-1H-indol-5-yl)piperidin-1-yl)acetonitrile] | 3.8 nM | 727 nM | 12.8 nM |
| Cc1c(-c2[nH]c3ccc(C4CCN(Cc5cn(C)nn5)CC4)cc3c2C(C)C)cn2cnnc2c1Cl [Example 84, 8-chloro-6-(3-isopropyl-5-(1-((1-methyl-1H-1,2,3-triazol-4-yl)methyl)piperidin-4-yl)-1H-indol-2-yl)-7-methyl-[1,2,4]triazolo[4,3-a]pyridine] | 5.7 nM | 1110 nM | 21.6 nM |
| Cc1c(-c2[nH]c3ccc(C4CCN(C5CCOC5)CC4)cc3c2C(C)C)cn2cnnc2c1C (stereo not drawn) [Example 93, 6-(3-isopropyl-5-(1-(tetrahydrofuran-3-yl)piperidin-4-yl)-1H-indol-2-yl)-7,8-dimethyl-[1,2,4]triazolo[4,3-a)pyridine] | 1.6 nM | 2800 nM | 4 nM |
| Cc1cc2nncn2cc1-c1[nH]c2ccc(C3CCN(C4COC4)CC3)cc2c1C(C)C [Example 66, 6-(3-isopropyl-5-(1-(oxetan-3-yl)piperidin-4-yl)-1H-indol-2-yl)-7-methyl-[1,2,4]triazolo[4,3-a]pyridine] | 55.5 nM | 18600 nM | 1030 nM |
| Cc1cc2nncn2cc1-c1[nH]c2ccc(C3CCNCC3)cc2c1C(C)C [Example 4, 6-(3-isopropyl-5-(piperidin-4-yl)-1H-indol-2-yl)-7-methyl-[1,2,4]triazolo[4,3-a]pyridine] | 56.7 nM | 2430 nM | 2340 nM |
| Cc1c(-c2[nH]c3ccc(C4CCN(C5CCC(F)(F)CC5)CC4)cc3c2C(C)C)cn2cnnc2c1C [Example 101, 6-(5-(1-(4,4-difluorocyclohexyl)piperidin-4-yl)-3-isopropyl-1H-indol-2-yl)-7,8-dimethyl-[1,2,4] triazolo[4,3-a]pyridine] | 12.3 nM | 1440 nM | 12.4 nM |
| Cc1c(-c2[nH]c3ccc(C4CCNCC4)cc3c2C(C)C)cn2cnnc2c1C [Example 8, 6-(3-isopropyl-5-(piperidin-4-yl)-1H-indol-2-yl)-7,8-dimethyl-[1,2,4]triazolo[4,3-a] pyridine] | 5.2 nM | 1880 nM | 29.6 nM |
| Cc1c(-c2[nH]c3ccc(C4C[C@H]5CC[C@@H](C4)N5)cc3c2C(C)C)cn2cnnc2c1C (single isomer, unassigned) [Example 117, 6-(5-(8-azabicyclo[3.2.1]octan-3-yl)-3-isopropyl-1H-indol-2-yl)-7,8-dimethyl-[1,2,4]triazolo[4,3-a]pyridine] | 31.6 nM | 6090 nM | 494 nM |
| Cc1cc(-c2[nH]c3ccc(C4CCN(CC(=O)N(C)C)CC4)cc3c2C(C)C)cn2cnnc12 [Example 12, 2-(4-(3-isopropyl-2-(8-methyl-[1,2,4]triazolo[4,3-a]pyridin-6-yl)-1H-indol-5-yl)piperidin-1-yl)-N,N-dimethylacetamide] | 1.5 nM | 1900 nM | 6.9 nM |
| Cc1c(-c2[nH]c3ccc(C4CCN(CCN5CCCC5=O)CC4)cc3c2C(C)C)cn2cnnc2c1C [Example 57, 1-(2-(4-(2-(7,8-dimethyl-[1,2,4]triazolo[4,3-a]pyridin-6-yl)-3-isopropyl-1H-indol-5-yl)piperidin-1-yl)ethyl) pyrrolidin-2-one] | 5 nM | 1300 nM | 13 nM |
| Cc1cc(-c2[nH]c3ccc(C4CCN(CC#N)CC4)cc3c2C(C)C)cn2cnnc12 [Example 37, 2-(4-(3-isopropyl-2-(8-methyl-[1,2,4]triazolo[4,3-a]pyridin-6-yl)-1H-indol-5-yl)piperidin-1-yl)acetonitrile] | 0.3 nM | 1520 nM | 6.5 nM |
